According to ChEMBL document CHEMBL5316298, “Discovery of Amphiphilic Xanthohumol Derivatives as Membrane-Targeting Antimicrobials against Methicillin-Resistant Staphylococcus aureus” (J Med Chem, 2023):
The source made the active and inactive calls.

Key:
Staphylococcus aureus [1] = test: Anti-MRSA activity against methicillin-resistant Staphylococcus aureus 3 incubated for 16 to 18 hrs in presence of 0 to 32 ug/ml cardiolipin by checkerboard broth dilution method; type: functional; settings: time 16-18 hrs
Staphylococcus aureus [2] = test: Antibacterial activity against Staphylococcus aureus ATCC 29213 incubated for 16 to 18 hrs by CLSI-based microbroth dilution method; type: functional; settings: time 16-18 hrs
[3] = Hemolytic activity in sheep erythrocytes incubated for 1 hr by absorbance based analysis; type: toxicity, cell-based, Ovis aries, Erythrocyte
Staphylococcus aureus [4] = test: Bactericidal activity against methicillin-resistant Staphylococcus aureus 3 at 8 times MIC measured at 2 hrs by plate colony counting method; type: functional, organism-based
[5] = Toxicity in KM mouse infected with methicillin-resistant Staphylococcus aureus 3 assessed as heart damage at 5 to 10 mg/kg administered into skin infection site measured after 24 hrs by H and E staining based analysis; type: organism-based; settings: in vivo, topical_or_ocular, dose 5-10 mg/kg
Staphylococcus aureus [6] = test: Antibacterial activity against methicillin-resistant Staphylococcus aureus 3 infected in KM mouse assessed as reduction in bacterial load at infection site at 10 mg/kg administered into skin infection site measured after 24 hrs relative to control; type: functional; set-up: scale not given: the % may be the effect or the level left
Staphylococcus aureus [7] = test: Anti-MRSA activity against methicillin-resistant Staphylococcus aureus 3 incubated for 16 to 18 hrs in presence of 64 ug/ml cardiolipin by checkerboard broth dilution method (reference value: 1 ug/ml); type: functional; settings: time 16-18 hrs
Cell membrane [8] = test: Disruption of membrane integrity in methicillin-resistant Staphylococcus aureus 3 assessed as increase in red fluorescence of PI incubated for 2 hrs by SYTO 9/PI staining based flow cytometry analysis; type: subcellular; settings: dose 4-64 µg/ml
[9] = Toxicity in KM mouse infected with methicillin-resistant Staphylococcus aureus 3 assessed as lung damage at 5 to 10 mg/kg administered into skin infection site measured after 24 hrs by H and E staining based analysis; type: organism-based; settings: in vivo, topical_or_ocular, dose 5-10 mg/kg
Staphylococcus aureus [10] = test: Antibacterial activity against methicillin-resistant Staphylococcus aureus 3 infected in KM mouse assessed as appearance of smoother dorsal skin at 10 mg/kg administered into skin infection site measured after 24 hrs; type: functional, organism-based
Staphylococcus aureus [11] = test: Anti-MRSA activity against methicillin-resistant Staphylococcus aureus 3 incubated for 16 to 18 hrs in presence of 64 ug/ml phosphatidylglycerol by checkerboard broth dilution method (reference value: 1 ug/ml); type: functional; settings: time 16-18 hrs
[12] = Toxicity in KM mouse assessed as redness in skin at 40 to 80 mg/kg, sc administered into middle dorsum and measured after 24 hrs; type: organism-based; settings: in vivo, dose 40-80 mg/kg
Staphylococcus aureus [13] = test: Bactericidal activity against Staphylococcus aureus ATCC 29213 at 8 times MIC measured at 1 hr by time kill assay; type: functional, organism-based
Staphylococcus aureus [14] = test: Induction of ROS production in methicillin-resistant Staphylococcus aureus 3 assessed as increase in intracellular ROS level incubated for 40 mins by DCFH-DA dye based fluorescence analysis; type: functional, organism-based; settings: dose 0-64 µg/ml
Staphylococcus aureus [15] = test: Antibacterial activity against methicillin-resistant Staphylococcus aureus 3 infected in KM mouse assessed as reduction in abscesses inside the skin at 5 mg/kg administered into skin infection site measured after 24 hrs; type: functional, organism-based
[16] = Toxicity in KM mouse infected with methicillin-resistant Staphylococcus aureus 3 assessed as histopathological abnormalities in heart at 5 to 10 mg/kg administered into skin infection site measured after 24 hrs by H and E staining based analysis; type: organism-based; settings: in vivo, topical_or_ocular, dose 5-10 mg/kg
[17] = Toxicity in KM mouse assessed as pathological changes in kidneys at 20 mg/kg, sc administered into middle dorsum and measured after 24 hrs by H and E staining based analysis; type: organism-based; settings: in vivo
Cell membrane [18] = test: Induction of membrane depolarization in methicillin-resistant Staphylococcus aureus 3 assessed as increase in fluorescence intensity measured every 2 mins for 20 mins by SYTOX-green dye based fluorescence assay; type: subcellular; settings: dose 8-32 µg/ml
Staphylococcus aureus [19] = test: Antibacterial activity against methicillin-resistant Staphylococcus aureus 3 infected in KM mouse assessed as reduction in bacterial load at infection site by measuring colony forming units at 10 mg/kg administered into skin infection site measured after 24 hrs; type: functional
[20] = Toxicity in KM mouse assessed as effect on mean corpuscular volume at 20 mg/kg, sc administered into middle dorsum and measured after 24 hrs by routine blood test; type: organism-based; settings: in vivo
Staphylococcus aureus [21] = test: Antibacterial activity against methicillin-resistant Staphylococcus aureus clinical isolate 2 incubated for 16 to 18 hrs by CLSI-based microbroth dilution method; type: functional; settings: time 16-18 hrs
[22] = Toxicity in KM mouse infected with methicillin-resistant Staphylococcus aureus 3 assessed as histopathological abnormalities in lungs at 5 to 10 mg/kg administered into skin infection site measured after 24 hrs by H and E staining based analysis; type: organism-based; settings: in vivo, topical_or_ocular, dose 5-10 mg/kg
[23] = Toxicity in KM mouse assessed as pathological changes in heart at 20 mg/kg, sc administered into middle dorsum and measured after 24 hrs by H and E staining based analysis; type: organism-based; settings: in vivo
Staphylococcus aureus [24] = test: Antibacterial activity against methicillin-resistant Staphylococcus aureus 3 infected in KM mouse assessed as reduction in inflammatory cells in subcutaneous tissue at 5 to 10 mg/kg administered into skin infection site measured after 24 hrs by H and E staining based analysis; type: functional, organism-based; settings: dose 5-10 mg/kg
Staphylococcus aureus [25] = test: Anti-MRSA activity against methicillin-resistant Staphylococcus aureus 3 incubated for 16 to 18 hrs in presence of 0 to 64 ug/ml peptidoglycan by checkerboard broth dilution method; type: functional, organism-based; settings: time 16-18 hrs
L02 = test: Cytotoxicity against human L02 cells assessed as reduction in cell viability at 64 ug/ml incubated for 24 hrs by CCK-8 assay; type: toxicity, cell-based; settings: l02, 24 h, dose 64 µg/ml
Cell membrane [26] = test: Disruption of membrane integrity in methicillin-resistant Staphylococcus aureus 3 assessed as increase in intense blue fluorescence at 8 times MIC incubated for 4 hrs by DAPI/PI staining based laser confocal microscopic analysis; type: subcellular
Staphylococcus aureus [27] = test: Anti-MRSA activity against methicillin-resistant Staphylococcus aureus 3 incubated for 16 to 18 hrs in presence of 0 to 64 ug/ml phosphatidylethanolamine by checkerboard broth dilution method; type: functional, organism-based; settings: time 16-18 hrs
Staphylococcus aureus [28] = test: Antibacterial activity against methicillin-resistant Staphylococcus aureus clinical isolate 6 incubated for 16 to 18 hrs by CLSI-based microbroth dilution method; type: functional; settings: time 16-18 hrs
[29] = Toxicity in KM mouse assessed as pathological changes in spleen at 20 mg/kg, sc administered into middle dorsum and measured after 24 hrs by H and E staining based analysis; type: organism-based; settings: in vivo
[30] = Toxicity in KM mouse assessed as effect on platelet count at 20 mg/kg, sc administered into middle dorsum and measured after 24 hrs by routine blood test; type: organism-based; settings: in vivo
Staphylococcus aureus [31] = test: Antibacterial activity against methicillin-resistant Staphylococcus aureus 3 infected in KM mouse assessed as reduction in abscesses on dorsal surface of skin at 5 mg/kg administered into skin infection site measured after 24 hrs; type: functional, organism-based
Staphylococcus aureus [32] = test: Antibacterial activity against methicillin-resistant Staphylococcus aureus clinical isolate 7 incubated for 16 to 18 hrs by CLSI-based microbroth dilution method; type: functional; settings: time 16-18 hrs
[33] = Toxicity in KM mouse assessed as mortality at 5 to 80 mg/kg, sc administered into middle dorsum and measured after 24 hrs; type: organism-based; settings: in vivo, dose 5-80 mg/kg
Staphylococcus aureus [34] = test: Antibacterial activity against methicillin-resistant Staphylococcus aureus clinical isolate 8 incubated for 16 to 18 hrs by CLSI-based microbroth dilution method; type: functional; settings: time 16-18 hrs
Cell membrane [35] = test: Induction of membrane depolarization in methicillin-resistant Staphylococcus aureus 3 assessed as fold increase in fluorescence intensity at 8 to 16 ug/ml measured after 20 mins by DiSC35 dye-based fluorescence assay relative to control; type: subcellular; settings: dose 8-16 µg/ml

CCCN(CCC)C(=O)C[N+](C)(C)CCCCOc1ccc(/C=C/C(=O)c2c(OC)cc3c(c2O)C=CC(C)(C)O3)cc1.[Br-]
1 µg/mL: MIC (Staphylococcus aureus [1]) | MIC (Staphylococcus aureus [2]) | MIC (Staphylococcus aureus [28])
338 µg/mL: HC50 at 1 h [3]
6: fold change (FC) (Cell membrane [35])
Toxic: Activity [12]
2 µg/mL: MIC (Staphylococcus aureus [21]) | MIC (Staphylococcus aureus [32]) | MIC (Staphylococcus aureus [34])
32 µg/mL: MIC (Staphylococcus aureus [7]) | MIC (Staphylococcus aureus [11])
Non-Toxic: Activity [5] | Activity [9] | Activity [16] | Activity [17] | Activity [20] | Activity [22] | Activity [23] | Activity (L02) | Activity [29] | Activity [30] | Activity [33]
99.998%: Activity (Staphylococcus aureus [6])
active: Activity (Staphylococcus aureus [4]) | Activity (Cell membrane [8]) Dose-Dependent Effect | Activity (Staphylococcus aureus [10]) | Activity (Staphylococcus aureus [13]) | Activity (Staphylococcus aureus [14]) | Activity (Cell membrane [18]) Dose-Dependent Effect | Activity (Staphylococcus aureus [24]) | Activity (Staphylococcus aureus [25]) | Activity (Cell membrane [26]) | Activity (Staphylococcus aureus [27])
4.5 log10CFU/g: Activity (Staphylococcus aureus [19])
inactive: Activity (Staphylococcus aureus [15]) | Activity (Staphylococcus aureus [31])
